Common to all, as to experiment: Kinase inhibitor library screening, PrestoBlue cell viability, 1 or 10 μM, 72 h
Series [1] deals with A375-GP cells (Dabrafenib-resistant). Conditions: A375 GP. The procedure:
(§1) After 72 h of treatment, cell viability was assessed using the PrestoBlue Cell Viability Reagent (ThermoFisher Scientific). Measurements were performed with the CLARIOstar Monochromator microplate reader (BMG Labtech).
(§2) Kinase inhibitor library screening. […] Each cell line was treated in its sensitive form (parental), and also as 2 resistant derivatives, which were made resistant to either Vemurafenib (XP) or Dabrafenib (GP). Drugs were added at 2 different concentrations, 1 and 10 μM, for 72 h and cell viability was assessed using the PrestoBlue Cell Viability assay. Results are depicted as % viability compared to untreated cells. Each cell line was analyzed at least in duplicate. […] (XLSX 95 kb)

The test system of series [2] is 501Mel-GP cells (Dabrafenib-resistant). Conditions: 501Mel GP. The procedure: as §1, §2
Another series deals with 501Mel cells (parental). Conditions: 501Mel Parental. The procedure:
as §1, §2

The test system of series [3] is 501Mel-XP cells (Vemurafenib-resistant). To be noted: 501Mel XP. The procedure:
as §1, §2

In another series the test system is IGR37 cells (parental). To be noted: IGR37 Parental. The procedure:
as §1, §2

For series [4], the system named is IGR37-GP cells (Dabrafenib-resistant). To be noted: IGR37 GP. As for the experimental part: as §1, §2
In series [5] the test system is IGR37-XP cells (Vemurafenib-resistant). To be noted: IGR37 XP. As for the experimental part:
as §1, §2

Series [6] deals with A375-XP cells (Vemurafenib-resistant). Conditions: A375 XP. As for the experimental part:
as §1, §2

Another series concerns A375 cells (parental). To be noted: A375 Parental, 72 h. The procedure:
as §1, §2

With `N#CC1(c2ccc(NC(=O)c3cccnc3NCc3ccncc3)cc2)CCCC1` [Apatinib (YN968D1)], the “cell viability (kinase inhibitor library screening)” value is on record as 97.5 in series [1] (1μΜ, in %); 98.6 in series [1] (10μΜ, in %); 102.7 in series [2] (1μΜ, in %); 98.0 in [2] (10μΜ, in %); 103.5 with 501Mel cells (parental) (1μΜ, in %); 103.9 with 501Mel cells (parental) (10μΜ, in %). The “cell viability (kinase inhibitor library screening)” value was determined as 112.2 in [3] (1μΜ, in %); 105.3 in series [3] (10μΜ, in %); 103.0 in the series with IGR37 cells (parental) (1μΜ, in %); 105.2 in the series on IGR37 cells (parental) (10μΜ, in %); 94.0 in series [4] (1μΜ, in %); 95.0 in [4] (10μΜ, in %). Further, the “cell viability (kinase inhibitor library screening)” value in series [5] (1μΜ, in %) is 105.2; in series [5] (10μΜ, in %) it was 86.2; in [6] (1μΜ, in %), 103.9; in series [6] (10μΜ, in %) it was 105.3.

As for `OCCn1cc(-c2cnc3nnn(Cc4ccc5ncccc5c4)c3n2)cn1` [PF-04217903], the “cell viability (kinase inhibitor library screening)” value with A375 cells (parental) (1μΜ) is 111.4%; in series [2] (1μΜ, 72 h) it was 89.0%; in [2] (10μΜ, 72 h), 82.3%; with 501Mel cells (parental) (1μΜ, 72 h), 97.4%; in the series on 501Mel cells (parental) (10μΜ, 72 h), 99.2%; in series [3] (1μΜ, 72 h), 68.7%. Further, the “cell viability (kinase inhibitor library screening)” value in series [3] (10μΜ, 72 h) is on record as 68.6%; in the series with IGR37 cells (parental) (1μΜ, 72 h), 119.0%; in the series with IGR37 cells (parental) (10μΜ, 72 h) it was 104.5%; in series [4] (1μΜ, 72 h) it was 105.7%; in series [4] (10μΜ, 72 h) it was 91.4%; in series [5] (10μΜ, 72 h), 67.3%. In addition, the “cell viability (kinase inhibitor library screening)” value came out at 107.0% in [6] (1μΜ, 72 h) and 110.9% in series [6] (10μΜ, 72 h).

As for `Cc1ccccc1-n1c(Cn2ncc3c(N)ncnc32)nc2cccc(C)c2c1=O` [PIK-293], in series [1] (1μΜ, 72 h), the “Cell viability in kinase inhibitor library screening, A375 GP, 1μΜ” value was 97.7. In addition, in [1] (10μΜ, 72 h), the “Cell viability in kinase inhibitor library screening, A375 GP, 10μΜ” value stood at 99.7. For the same compound, in series [2] (10μΜ, 72 h, in %), the “Cell viability in kinase inhibitor library screening, 501Mel GP, 10μΜ” value was determined as 90.9. For the same compound, in the series on 501Mel cells (parental) (10μΜ, 72 h, in %), the “Cell viability in kinase inhibitor library screening, 501Mel Parental, 10μΜ” value worked out at 99.9. Besides, in series [3] (1μΜ, 72 h, in %), the “Cell viability in kinase inhibitor library screening, 501Mel XP, 1μΜ” value came out at 112.1. In [3] (10μΜ, 72 h, in %), the “Cell viability in kinase inhibitor library screening, 501Mel XP, 10μΜ” value turned out to be 91.5. In the series on IGR37 cells (parental) (1μΜ, 72 h, in %), the “Cell viability in kinase inhibitor library screening, IGR37 Parental, 1μΜ” value came out at 105.2. In addition, in the series on IGR37 cells (parental) (10μΜ, 72 h, in %), the “Cell viability in kinase inhibitor library screening, IGR37 Parental, 10μΜ” value worked out at 107.6. The Cell viability in kinase inhibitor library screening, IGR37 XP, 10μΜ in [5] (10μΜ, 72 h) came to 77.6%. For the same compound, the “Cell viability in kinase inhibitor library screening, IGR37 XP, 1μΜ” value in series [5] (1μΜ, 72 h, in %) is reported as 103.2. Further, in series [6] (1μΜ, 72 h), the “Cell viability in kinase inhibitor library screening, A375 XP, 1μΜ” value is given as 106.1. Also, in [6] (10μΜ, 72 h), the “Cell viability in kinase inhibitor library screening, A375 XP, 10μΜ” value is on record as 104.4.

For the compound `CCn1c(N)c(C(=O)NC)c(=O)c2ccc(C#C[C@@](C)(O)COC)nc21` [SAR131675], the “cell viability (kinase inhibitor library screening)” value amounted to 103.2 in series [1] (1μΜ, in %); 87.6 in series [1] (10μΜ, in %); 103.5 in [2] (1μΜ, in %); 90.9 in [2] (10μΜ, in %); 96.4 in the series on 501Mel cells (parental) (1μΜ, in %); 92.6 with 501Mel cells (parental) (10μΜ, in %). Also, the “cell viability (kinase inhibitor library screening)” value in [3] (1μΜ, in %) came to 103.7; in series [3] (10μΜ, in %), 85.3; with IGR37 cells (parental) (1μΜ, in %) it was 100.2; in the series with IGR37 cells (parental) (10μΜ, in %) it was 99.7; in series [4] (1μΜ, in %), 93.4; in series [4] (10μΜ, in %) it was 96.6. In addition, the “cell viability (kinase inhibitor library screening)” value in series [5] (1μΜ, in %) is reported as 94.6; in series [5] (10μΜ, in %), 71.4; in series [6] (1μΜ, in %), 108.8.

As to `Cn1cc(-c2ccc3nnc(Sc4ccc5ncccc5c4)n3n2)cn1` [SGX-523], the “cell viability (kinase inhibitor library screening)” value was 89.5% in [1] (1μΜ, 72 h); 94.8% in series [1] (10μΜ, 72 h); 97.1% in the series on A375 cells (parental) (10μΜ); 104.5% in the series with A375 cells (parental) (1μΜ); 82.6% in series [2] (1μΜ, 72 h); 64.3% in series [2] (10μΜ, 72 h). For the same compound, the “cell viability (kinase inhibitor library screening)” value in the series on 501Mel cells (parental) (1μΜ, 72 h) came to 95.0%; in the series with 501Mel cells (parental) (10μΜ, 72 h), 89.4%; in [3] (1μΜ, 72 h) it was 67.2%; in series [3] (10μΜ, 72 h) it was 58.8%; in the series on IGR37 cells (parental) (1μΜ, 72 h), 107.3%; in the series on IGR37 cells (parental) (10μΜ, 72 h), 94.5%. In addition, the “cell viability (kinase inhibitor library screening)” value was 94.1% in series [4] (1μΜ, 72 h); 90.7% in [4] (10μΜ, 72 h); 100.4% in [5] (1μΜ, 72 h); 74.3% in [5] (10μΜ, 72 h).

Take `C[C@@H]1CCN(C(=O)CC#N)C[C@@H]1N(C)c1ncnc2[nH]ccc12.O=C(O)CC(O)(CC(=O)O)C(=O)O` [Tofacitinib citrate (CP-690550 citrate)]: the “cell viability, A375 GP, 1μΜ” value in [1] (1μΜ, 72 h, in %) is recorded as 103.6. For the same compound, the “cell viability, A375 Parental, 10μΜ” value in the series on A375 cells (parental) (10μΜ, in %) came out at 93.7. Further, in series [2] (1μΜ, 72 h, in %), the “cell viability, 501Mel GP, 1μΜ” value is 103.5. Besides, the “cell viability, 501Mel GP, 10μΜ” value in series [2] (10μΜ, 72 h, in %) is 93.7. Besides, the “cell viability, 501Mel XP, 1μΜ” value in [3] (1μΜ, 72 h, in %) worked out at 94.0. The “cell viability, 501Mel XP, 10μΜ” value in series [3] (10μΜ, 72 h, in %) stood at 90.7. Further, the “cell viability, IGR37 Parental, 10μΜ” value in the series with IGR37 cells (parental) (10μΜ, 72 h, in %) is reported as 107.1. In series [4] (10μΜ, 72 h), this compound had a cell viability, IGR37 GP, 10μΜ of 94.9%. The “cell viability, IGR37 GP, 1μΜ” value in series [4] (1μΜ, 72 h, in %) is 98.3. This compound also registered a cell viability, IGR37 XP, 10μΜ in series [5] (10μΜ, 72 h) of 83.2%. Besides, in series [5] (1μΜ, 72 h, in %), the “cell viability, IGR37 XP, 1μΜ” value was 104.3. In addition, the “cell viability, A375 XP, 1μΜ” value in [6] (1μΜ, 72 h, in %) turned out to be 103.3.

On to `O=C(O)c1ccc2c(c1)nc(Nc1cccc(Cl)c1)c1ccncc12` [cx-4945 (Silmitasertib)], for which the “Cell viability in kinase inhibitor library screening, A375 GP, 1μΜ” value in [1] (1μΜ, 72 h) worked out at 93.2. Moreover, in series [2] (1μΜ, 72 h, in %), the “Cell viability in kinase inhibitor library screening, 501Mel GP, 1μΜ” value was 93.9. For the same compound, the “Cell viability in kinase inhibitor library screening, 501Mel GP, 10μΜ” value in [2] (10μΜ, 72 h, in %) came to 31.8. Also, in the series on 501Mel cells (parental) (1μΜ, 72 h, in %), the “Cell viability in kinase inhibitor library screening, 501Mel Parental, 1μΜ” value came out at 96.6. In the series with 501Mel cells (parental) (10μΜ, 72 h, in %), the “Cell viability in kinase inhibitor library screening, 501Mel Parental, 10μΜ” value is 52.6. The “Cell viability in kinase inhibitor library screening, 501Mel XP, 1μΜ” value in [3] (1μΜ, 72 h, in %) stood at 88.6. In addition, in the series on IGR37 cells (parental) (10μΜ, 72 h, in %), the “Cell viability in kinase inhibitor library screening, IGR37 Parental, 10μΜ” value is given as 86.7. The Cell viability in kinase inhibitor library screening, IGR37 GP, 10μΜ in [4] (10μΜ, 72 h) came out at 55.9%. Besides, the “Cell viability in kinase inhibitor library screening, IGR37 GP, 1μΜ” value in series [4] (1μΜ, 72 h, in %) stood at 94.1. The compound further yielded a Cell viability in kinase inhibitor library screening, IGR37 XP, 10μΜ in series [5] (10μΜ, 72 h) of 23.6%. Moreover, the “Cell viability in kinase inhibitor library screening, IGR37 XP, 1μΜ” value in [5] (1μΜ, 72 h, in %) came out at 96.8.

In the case of AZD4547, the “cell viability, A375 Parental, 10μΜ” value in the series on A375 cells (parental) (10μΜ) is on record as 58.2. Besides, the “cell viability, 501Mel GP, 10μΜ” value in series [2] (10μΜ, 72 h) is 57.3. Moreover, the “cell viability, 501Mel Parental, 10μΜ” value with 501Mel cells (parental) (10μΜ, 72 h) worked out at 11.5. For the same compound, the “cell viability, 501Mel XP, 1μΜ” value in series [3] (1μΜ, 72 h) is on record as 93.2. Further, in series [3] (10μΜ, 72 h), the “cell viability, 501Mel XP, 10μΜ” value amounted to 14.1. Further, the “cell viability, IGR37 Parental, 10μΜ” value in the series on IGR37 cells (parental) (10μΜ, 72 h) is listed as 46.6. In addition, in [4] (1μΜ, 72 h), the “cell viability, IGR37 GP, 1μΜ” value is 93.7. Besides, the “cell viability, IGR37 GP, 10μΜ” value in series [4] (10μΜ, 72 h) is 19.5. For the same compound, the “cell viability, IGR37 XP, 1μΜ” value in [5] (1μΜ, 72 h) amounted to 94.4. Also, the “cell viability, IGR37 XP, 10μΜ” value in series [5] (10μΜ, 72 h) was found to be 6.4. The “cell viability, A375 XP, 1μΜ” value in series [6] (1μΜ, 72 h) is listed as 100.3. In addition, the “cell viability, A375 XP, 10μΜ” value in series [6] (10μΜ, 72 h) came to 49.7.

The values above are taken from article PMC6364417, “Kinase inhibitor library screening identifies synergistic drug combinations effective in sensitive and resistant melanoma cells” (Journal of Experimental & Clinical Cancer Research : CR, 2019).
